# In patent US20190307664A1, “METHOD AND COSMETIC COMPOSITION FOR ENHANCED TRANSDERMAL DELIVERY OF ALKYL SUBSTITUTED RESORCINOL” (CONOPCO, INC., D/B/A UNILEVER, priority 2016, published 2019):
# Tested on: HeMnDP melanocyte monoculture
# Assay: Melanin content assay in melanocyte monoculture (after Calcein-AM viability assay)
# Assay type: cell-based
# Conditions: 72 hours
# Procedure: All samples were analysed to determine the extent of their ability to bring about skin lightening by checking the cell viability and melanin content assay. Set Up of Cultures Involved the Following Steps: • ([…] per well (single wells/treatment) in 24-well Nunc plates on Day-0 were seeded to establish a melanocyte monoculture system. • (ii) The volume of media per well was limited to 1 ml of Melanocyte Growth Media (MGM) • (iii) 24 hours later, fresh media containing actives was added again. At this stage also, 1 ml of MGM was used. • (iv) Plates were incubated for 72 hours at 37° C. in a CO2 incubator. • (v) At the end, the plates were sent for Calcein assay, described hereinafter, followed by melanin content estimation. Calcein-AM Viability Assay • (i) The spent media was removed from each well of a 24-well plate and rinsed once with 400 μl of 1×PBS-Ca-Mg (see preparation below), including wells without cells (Control wells). • (ii) One μM Calcein-AM (working stock) in 1×PBS-Ca-Mg from 1 mM stock (e.g. 10 μl of 1 mM Calcein stock in 100% DMSO in 10 ml of 1×PBS-Ca-Mg) was prepared. About 400 μl of Calcein-AM working stock solution was added to each well, including the controls cells. • (iii) The plates were covered with aluminum foil and were incubated for 30 minutes in a CO2 incubator. • (iv) In the meantime, fluorescence was measured (excitation at 490 nm and emission at 520 nm) using TECAN® instrument after 30 minutes of dye incubation. • (v) After reading the plates, the buffer containing Calcein was removed and melanin content assay was then carried out. […] The % inhibition was then calculated for each case. Higher values of % inhibition indicate an active ingredient's potential to serve as a skin lightening agent. The tests of Example 2 were repeated with isonicotinamide instead of picolinamide.
smiles,measurement,setting,value
"CCCCCCc1ccc(O)cc1O [Ex-B, 4-hexyl resorcinol]",Inhibition in melanin synthesis,"4-hexyl Resorcinol 0.192 μg, Example 2",3%
same,Inhibition in melanin synthesis,"4-hexyl Resorcinol 0.192 μg, Example 3",3%
same,Inhibition in melanin synthesis,"4-hexyl Resorcinol 1.92 μg, Example 2",31%
same,Inhibition in melanin synthesis,"4-hexyl Resorcinol 1.92 μg, Example 3",31%
"NC(=O)c1ccccn1 [Ex-D, Picolinamide]",Inhibition in melanin synthesis,picolinamide 122 μg,1%
same,Inhibition in melanin synthesis,picolinamide 1220 μg,27%
"NC(=O)c1ccncc1 [Ex-I, Isonicotinamide]",Inhibition in melanin synthesis,Isonicotinamide 122 μg,−16%
same,Inhibition in melanin synthesis,Isonicotinamide 1220 μg,10%
